The values below come from ChEMBL document CHEMBL2074268, “Cloning of mouse prostaglandin transporter PGT cDNA: species-specific substrate affinities” (Am J Physiol, 1999).

Format in all cases: functional, cell-based
Test [1] deals with Solute carrier organic anion transporter family member 2A1 (Homo sapiens, UniProt Q92959). Nature of the test: (§1) TP_TRANSPORTER: inhibition of PGE2 uptake in PGT-expressing HeLa cells.
Test [2] has as its target Solute carrier organic anion transporter family member 2A1 (Rattus norvegicus, UniProt Q00910). The description is as §1.
The target of test [3] is Solute carrier organic anion transporter family member 2A1 (Mus musculus, UniProt Q9EPT5). The description is as §1.

What is called Ki is the equilibrium dissociation constant of an inhibitor or competing ligand from its target. Low readings indicate higher affinity, high ones lower affinity.

Sequence of Solute carrier organic anion transporter family member 2A1 (Mus musculus, UniProt Q9EPT5) (Q9EPT5 whole entry): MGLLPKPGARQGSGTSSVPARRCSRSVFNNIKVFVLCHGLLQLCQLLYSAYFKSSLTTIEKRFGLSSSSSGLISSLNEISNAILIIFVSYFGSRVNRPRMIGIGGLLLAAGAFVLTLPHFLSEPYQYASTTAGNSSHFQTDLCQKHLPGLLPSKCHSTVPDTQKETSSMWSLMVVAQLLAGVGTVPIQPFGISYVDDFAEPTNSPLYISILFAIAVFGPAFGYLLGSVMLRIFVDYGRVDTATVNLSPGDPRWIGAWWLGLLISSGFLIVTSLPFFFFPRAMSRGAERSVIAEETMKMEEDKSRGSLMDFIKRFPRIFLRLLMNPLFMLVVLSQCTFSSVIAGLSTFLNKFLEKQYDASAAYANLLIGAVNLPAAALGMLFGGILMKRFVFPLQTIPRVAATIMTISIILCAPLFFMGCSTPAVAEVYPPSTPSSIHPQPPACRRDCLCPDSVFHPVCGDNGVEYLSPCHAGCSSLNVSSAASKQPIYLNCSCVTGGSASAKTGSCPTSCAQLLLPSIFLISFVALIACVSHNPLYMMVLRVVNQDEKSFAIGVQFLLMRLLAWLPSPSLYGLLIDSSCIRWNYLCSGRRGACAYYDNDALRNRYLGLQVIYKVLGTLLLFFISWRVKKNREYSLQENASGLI

Turning to `CCCCC[C@H](O)/C=C/[C@@H]1[C@@H](C/C=C\CCCC(=O)O)[C@@H](O)C[C@H]1O` [DINOPROST], the Ki was 23 nM in test [1], 45 nM in test [2] and 104 nM in test [3].

In the case of `CCCCC[C@H](O)/C=C/[C@H]1C(=O)C[C@H](O)[C@@H]1C/C=C\CCCC(=O)O` [PROSTAGLANDIN D2], the inhibition constant Ki in test [1] was 38 nM; in test [2] it was 45 nM; in test [3] it was 98 nM.
